Data set [1] in a line: Single-dose intraperitoneal PK of pralurbactam in mice plasma (UPLC-MS/MS, one-compartment model, population PK). In kind it is in vivo. The settings on record: for Dose proportionality of Cmax or AUCinf (PK linearity): 5-500 mg/kg ip, non-compartmental regression analysis. The source says: The ultra-high performance liquid chromatography-tandem mass spectrometry (UPLC-MS/MS) system consisted of an LC-30A UPLC (Shimadzu Corporation, Japan) equipped with an Atlantis® T3 (3 μm, 2.1 × 100 mm) column, liquidity, and the cleaning solution mixed with formic acid, ammonium acetate, and acetonitrile, an API5500 mass spectrometer (AB SCIEX, USA). The retention times of chromatographic peaks and mass-to-charge ratios were obtained by MRM scanning pralurbactam (m/z 383.2 → 303.0), meropenem (m/z 384.1 → 141.2), internal standards pralurbactam-D4 (m/z 387.3 → 307.1), and meropenem-D6 (m/z 390.1 → 147.2) for peak identification. The drug concentration in the samples was calculated using Watson LIMS (version 7.5).
The UPLC-MS/MS method used to measure pralurbactam and meropenem concentrations in mice plasma was validated accurately in terms of selectivity, interaction, matrix effect, calibration curve, linearity, precision, accuracy, recovery, and stability. […] At this LLOQ level, the intra- and inter-assay precision was 3.5%–9.0% and 6.3% for pralurbactam, 5.0%–10.7% and 14.3% for meropenem. The overall recovery of pralurbactam and meropenem was 81.2% and 58.6%, respectively, and the corresponding coefficient of variation (CV) was 8.0% and 5.4%. This assay method was applied to quantify pralurbactam and meropenem for PK study.
The administration method for pralurbactam or meropenem (dissolved in sterile water) is single-dose intraperitoneal injection. […] Five mice were randomly selected for anesthesia and orbital blood sampling at each time-point (0.083, 0.25, 0.5, 1, 2, 3, 4, and 6 h) after dosing. A blood sample (600–800 μl) was obtained from the mouse immediately. Each mouse selected for blood sampling at each time point was euthanized immediately. The concentrations of pralurbactam and meropenem in plasma samples were determined using the validated UPLC-MS/MS method. PK parameters (including non-compartmental parameter linear fitting and compartmental simulation) of pralurbactam and meropenem in plasma were calculated using Phoenix WinNonlin (version 8.1, Certara Corporation). The compartmental PK parameters of pralurbactam were used to calculate the fCmax, fAUC0–24, and %fT > CT. The free fraction of pralurbactam was 100% based on in vitro mouse plasma.
In this study, the PK parameters of pralurbactam were calculated for each dosage cohort using Phoenix WinNonlin software based on the mean plasma concentrations at each sampling point in mice. The mean values of the PK parameters were used to simulate the potential PK/PD indices. Another method, the PK parameters could be estimated by the population PK (PPK) model using NONMEM software based on the pooled plasma concentrations. The estimated typical values of Ke and V/F based on the population PK model of pralurbactam were generally consistent with the classical mean values of Ke (PPK: 2.34 h^1 vs. classical PK: 2.55 h^1) and V/F (PPK: 0.719 L vs. classical PK: 0.72 L).

Data set [2] in a line: Free fraction in in vitro mouse plasma. The format is in vitro ADME.
In a further data set the test system is Klebsiella pneumoniae. Put plainly: Neutropenic murine thigh infection model, PK/PD Emax fitting. The format is in vivo. The conditions noted are these: fixed 100 mg/kg q2h of meropenem; strains 17-R1-16, 20-W2-70, ATCC BAA-1705. On the procedure: (§1) Mice (SPF grade, female, 25–30 g, 6–7 weeks) were provided by Beijing Huafukang Biotechnology Co. The animal study was reviewed and approved by the Animal Ethics Committee of State Key Laboratory of Biotherapy, Sichuan University (approval letter No.: 20190923035). All experimental animals from the study were intraperitoneally injected with cyclophosphamide (solution using 0.9% sodium chloride injection to achieve a concentration of 15 mg/ml) at a dose of 150 mg/kg at 4 days and 1 day prior to the day of infection to form immunocompromised mouse models. The hair on both thighs of the mice was shaved off 2 h before inoculation. The injection site was disinfected with 75% alcohol before intramuscular injection and dried with skimmed cotton. The mouse was challenged by inoculum of 1 × 10^8 CFU/ml of the test strain via injection of 50 μl of bacterial solution into both thighs. The time was referred to as t = 0 h, 2 h after the mice were infected. The control mice were euthanized at this time to record the initial bacterial colonies by taking the thigh muscle. The specific dosage of pralurbactam or meropenem for each dosing regimen was intraperitoneally injected (t = 0 h). At 26 h after the mice were infected (t = 24 h), the mice (experimental group) in each dosage cohort were euthanized to record the bacterial load to calculate CFU change (Δlog10 CFU).

A further data set deals with E. coli. Kind of data set: Susceptibility testing (MIC). The format is cell-based. The conditions noted are these: drug alone. From the text: (§2) The study used a total of […] strains of KPC-, NDM-, or OXA-producing Enterobacterales (three strains of K. pneumoniae and four strains of E. coli), which were provided by Microbiology Division, Institute of Antibiotics, Huashan Hospital, Fudan University. Quality control strains are selected for each bacteria.
(§3) Supplementary Table 1 Susceptibility testing results of meropenem alone, pralurbactam alone, or meropenem with FL058 in combination against K. pneumoniae and E. coli

The next data set has as its system K. pneumoniae. Put plainly: Susceptibility testing (MIC). In kind it is cell-based. The conditions noted are these: drug alone.
From the text: as §2, §3

In data set [3] the test system is Escherichia coli. The settings on record: cited from earlier work.
Data set [4] has as its system class A, C, and D β-lactamases. Set-up: method as in Sharma et al., 2016. The conditions noted are these: ref Sharma et al., 2016; cited from earlier work.
For data set [5] the following is noted: human, in vivo, cited from earlier work.
The test system of data set [6] is Escherichia coli. Put plainly: Neutropenic murine thigh infection model, PK/PD Emax fitting. The format is in vivo. The settings on record: 50 mg/kg meropenem alone q2h (without pralurbactam); strains 18-W40-096 and ATCC BAA-2452. On the procedure: as §1
Where [7] appears, read: mean of all dosage cohorts, classical one-compartment PK.
Where [8] appears, read: population PK (PPK) model, NONMEM, typical value, pooled plasma concentrations.
The mark [9] stands for this setting: pralurbactam 5 mg/kg ip single dose, alone, one-compartment model.
Setting [10] is: pralurbactam 50 mg/kg ip single dose, alone, one-compartment model.
[11] abbreviates: pralurbactam 50 mg/kg ip, combined with meropenem 100 mg/kg, one-compartment model.
The mark [12] stands for this setting: pralurbactam 250 mg/kg ip, combined with meropenem 100 mg/kg, one-compartment model.
The mark [13] stands for this setting: pralurbactam 500 mg/kg ip single dose, alone, one-compartment model.

Read-outs that look alike come from different tables or passages of the source.

Results on two compounds are retold here after article PMC11685127, “Pharmacokinetic/pharma-codynamic study of pralurbactam (FL058) combined with meropenem in a neutropenic murine thigh infection model” (Frontiers in Microbiology, 2024).

As for `N=C(N)NOCCONC(=O)[C@@H]1CC[C@@H]2CN1C(=O)N2OS(=O)(=O)O` [Pralurbactam], the “%fT > 1 mg/L” value is reported as 88% in data set [1] (50 mg/kg q2h pralurbactam intraperitoneally in mice) and 86% in data set [5] (iv). Also, the “Dose proportionality of Cmax or AUCinf (PK linearity)” value is recorded as “linear” in [1] and “dose proportional” in data set [1] (listed as pralurbactam). Moreover, the Ka in data set [1] (setting [7]) is listed as 50.2 h^1; in data set [1] (median value of dosage cohorts, classical PK), 26.0 h^1; in data set [1] (population PK (PPK) model, NONMEM, estimate), 29.1 h^1; in data set [1] (setting [9]) it was 27.4 h^1; in data set [1] (setting [10]), 13.7 h^1; in data set [1] (setting [11]) it was 24.5 h^1. The results for the Ka in data set [1] (setting [12]) and in data set [1] (setting [13]) were 26.0 h^1 and 159.4 h^1, respectively. Further, the Ke came to 2.55 h^1 in data set [1] (setting [7]); 2.34 h^1 in data set [1] (setting [8]); 2.24 h^1 in data set [1] (setting [9]); 3.83 h^1 in data set [1] (setting [10]); 2.11 h^1 in [1] (setting [11]); 1.93 h^1 in data set [1] (setting [12]). Also, in data set [1] (setting [13]), the Ke is given as 2.64 h^1. Besides, the V/F came to 0.72 L in data set [1] (setting [7]); 0.719 L in [1] (setting [8]); 0.77 L in [1] (setting [9]); 0.55 L in data set [1] (setting [10]); 0.79 L in data set [1] (setting [11]); 0.91 L in data set [1] (setting [12]). The V/F in data set [1] (setting [13]) is on record as 0.57 L. In data set [2], this compound showed a Free fraction of 100%. In addition, the “Pralurbactam dose in the combination that inhibits growth of all test strains” value with Klebsiella pneumoniae was “at least 25 mg/kg”. The MIC is 2 µg/mL in the data set on E. coli (18-W32-020 (NDM-5)); 4 µg/mL in the data set with E. coli (18-W39-088 (NDM-1)); 4 µg/mL with E. coli (18-W40-096 (NDM-1)); 4 µg/mL in the data set with E. coli (ATCC BAA-2452 (NDM-1)); greater than 64 µg/mL with K. pneumoniae (17-R1-16 (KPC-2, CTX-M-14)); 8 µg/mL with K. pneumoniae (20-W2-70 (OXA-48)). In the data set on K. pneumoniae (ATCC BAA-1705 (KPC-2)), the MIC was 4 µg/mL. Besides, the “Activity of pralurbactam alone” value in the data set on Escherichia coli [3] (ref Huang et al., 2024a) was “partial activity”. For the same compound, the “Inhibitory effect of pralurbactam alone” value in the data set with Escherichia coli [3] (ref in vitro susceptibility study (to be published)) is recorded as “notable inhibitory effects”. Besides, the “Activity against β-lactamases in vitro” value in data set [4] is listed as “active”. Besides, the “Safety, tolerance and PK profiles” value in [5] was “good safety, tolerance, and PK profiles”.

On to `C[C@@H](O)[C@H]1C(=O)N2C(C(=O)O)=C(S[C@@H]3CN[C@H](C(=O)N(C)C)C3)[C@H](C)[C@H]12` [Meropenem], for which, in the data set on Escherichia coli [6], the “Growth inhibition in thigh model” value is reported as “significant growth inhibition”. Besides, the MIC in the data set with E. coli (18-W32-020 (NDM-5)) is 32 µg/mL; with E. coli (18-W39-088 (NDM-1)) it was greater than 64 µg/mL; with E. coli (18-W40-096 (NDM-1)) it was 64 µg/mL; with E. coli (ATCC BAA-2452 (NDM-1)) it was 32 µg/mL; in the data set with K. pneumoniae (17-R1-16 (KPC-2, CTX-M-14)), greater than 64 µg/mL; in the data set on K. pneumoniae (20-W2-70 (OXA-48)), 32 µg/mL. Moreover, the MIC in the data set with K. pneumoniae (ATCC BAA-1705 (KPC-2)) stood at 16 µg/mL.

In general, MIC refers to the smallest concentration in the dilution series that meets the test's criterion for growth inhibition.
